The nature of data set [1]: Effect of formulation pH on flux, Franz-diffusion cell, nylon membrane. Conditions: for Total flux: Mepivacaine 10% w/w, HPMC K4M 3% gel. Type of data set: in vitro ADME. How it is done: The influence of pH on the permeability of mepivacaine HCl from a variety of gel dosage forms was evaluated. The in-vitro drug release from gel formulations was studied across the Nylon 6, 6 membrane (0.22 μm) using Franz-diffusion cell with effective surface area of 3.14 cm^2 and receptor cell volume of 18 mL. The receptor compartment was filled with PBS pH 6.8 and maintained at 37±0.5° C. with constant magnetic stirring. 0.3-0.5 gm of gel was placed on the donor compartment. The samples (1 mL) were collected from the receptor compartment (dilutions made if required) at predetermined time interval for a period of 6-8 h and replaced by equal volume of fresh receptor solution to maintain constant volume. The amount of drug in the samples was assayed spectrophotometrically at 263 nm against appropriate blank. Studies were carried using HPMC K4M 3% as gelling agent with or without containing carvone (0.5%) as a penetration enhancer, so as to assess the effects of pH per se and pH in the presence of penetration enhancers. When Carbopol 3% was used as gelling agent, it gets precipitated out at pH below 5. HPMC gel formulations at pH 8.5 result in precipitation of mepivacaine from the gel. […] The maximum flux was obtained at pH 7.5.

The subject of data set [2] is gp120 model of painful HIV-associated peripheral neuropathy. The data set can be described thus: Mechanical allodynia (hind paw withdrawal threshold), gp120 model. Type of data set: in vivo, rat. The note with it: for mechanical allodynia, difference from control: p ≤0.05. An excerpt: (§1) This study evaluated the effects of topical mepivacaine in DMSO painful HIV-associated peripheral neuropathy. HIV peripheral neuropathy in the rat was induced by sciatic nerve exposure to gp120.
(§2) Under anesthesia, the left sciatic nerve of male rats was isolated by blunt dissection of the biceps, without damaging the perineurium. The HIV-1 viral envelope protein, gp120 was embedded in a carrier matrix and delivered directly to the sciatic nerve. The muscular layer was closed using 3-0 silk and the skin sealed with veterinarian-grade cyanoacrylate.
(§3) A gauze pad was saturated with either mepivacaine in DMSO (vehicle) or vehicle alone and secured to the left plantar hind paw for 5 min. Rats were immediately tested after removal of the pad. Rats were then tested again at 5, 10 and 15 minutes after removal of the pad. Mepivacaine was tested at various concentrations. The treatment assignment was masked. A period of 48 hrs was allowed between retesting of the rats. The continued presence of hyperalgesia in the rats was confirmed by pre-drug application baseline testing on each test day.
(§4) Plantar hind paw response to noxious heat and pressure application was evaluated before and one week following sciatic nerve surgery to confirm onset of hyperalgesia following gp120 administration. Following 15-20 min acclimation in the test chamber, a thermal heat stimulus was aimed at the mid-plantar hind paw as rats stand on a glass surface. The latency to a withdrawal response was recoded electronically. The stimulus intensity was adjusted to result in mean pre-surgical baseline latencies of approximately 12 seconds. Each hind paw was tested once to obtain a hind paw withdrawal latency. Mechanical allodynia was assessed by application of increasing pressure (32 g/sec) to the plantar hind paw over time. The withdrawal threshold (measured in grams) was reached when the rat withdrew its paw from the apparatus. The pre-surgical withdrawal threshold of naïve rats was about 175 g. Each hind paw was tested once to obtain a hind paw withdrawal threshold. Antinociception, or analgesia, was defined quantally as an increase in response over baseline.
(§5) Statistical analysis for thermal hyperalgesia and mechanical allodynia were performed and statistical significance was declared if the two-sided p-value was ≤0.05. All computations were performed using SigmaStat™ for Windows™, Version 3.5.

Data set [3] shares this test system. The data set can be described thus: Thermal hyperalgesia (hind paw withdrawal latency), gp120 model. Type of data set: in vivo, rat. Conditions: for thermal hyperalgesia, difference from control: p ≤0.05.
Text: as §1, §2, §3, §4, §5

Data set [4] has as its system isolated dorsal root ganglion neurons from chick embryos. The note with it: cited from earlier work.
For data set [5], the system named is combined HIV viral envelope protein (gp120) and NRTI model of painful HIV-associated peripheral neuropathy. Kind of data set: Mechanical allodynia, zalcitabine plus gp120 model. Type of data set: in vivo, rat. Conditions: for mechanical allodynia, difference from control: p ≤0.05.
Text: (§6) This study evaluated the effects of topical mepivacaine in DMSO painful HIV-associated peripheral neuropathy. HIV peripheral neuropathy in the rat was induced by sciatic nerve exposure to zalcitabine plus gp120.
(§7) Under anesthesia, the left sciatic nerve of male rats was isolated by blunt dissection of the biceps, without damaging the perineurium. The HIV-1 viral envelope protein, gp120 was embedded in a carrier matrix and delivered directly to the sciatic nerve. The muscular layer was closed using 3-0 silk and the skin sealed with veterinarian-grade cyanoacrylate. Rats received intravenous tail injection of zalcitabine.
as §3
as §4, with “Each hind paw was tested once to obtain a hind paw withdrawal threshold. Antinociception, or analgesia, was defined quantally as an increase in response over baseline.” left out

For data set [6] the following is noted: in vivo; cited from earlier work.
The conditions of data set [7]: in vivo; cited from earlier work. This is another data set of the same source.
Another data set relates to tail-flick model. Kind of data set: Tail-flick assay. Type of data set: in vivo, mice. The note with it: for tail-flick latency, difference from control: p ≤0.05. How it is done: This study evaluated the effects of topical in DMSO mepivacaine in the tail-flick model.
Male mice were maintained on a 12-h light/dark cycle with food and water available ad libitum. Mice were housed in groups of five until testing
Drugs were given topically in DMSO (vehicle) on the tail by immersion of the tail in treatment solution for 5 minutes. Tail-flick latencies were then determined on the region of the tail immersed in the drug, unless otherwise stated. Mice were immediately tested after removal of the tail from the treatment solution and retested at 5 and 10 minutes. Mepivacaine was tested at various concentrations. The treatment assignment was masked.
Analgesia was assessed with the tail-flick assay. Responses were measured by exposing the distal part of the tail to a thermal stimulus, and the latency of exposure was determined. The tail flick latency is the time interval between onset of the heat stimulus and withdrawal of the tail the thermal stimulus. Baseline latencies ranged from 2 to 3 s. Testing was performed immediately after termination of topical administration into the tail and at 5 and 10 minutes thereafter. Antinociception, or analgesia, was defined quantally as an increase in response over baseline.
Statistical analysis was performed and statistical significance was declared if the two-sided p-value was ≤0.05. All computations were performed using SigmaStat™ for Windows™, Version 3.5.
On the technique in general: Hot-plate and tail-flick tests time the reaction to a heat stimulus.

The test system of data set [8] is combined HIV viral envelope protein (gp120) and NRTI model of painful HIV-associated peripheral neuropathy. The data set can be described thus: Thermal hyperalgesia, zalcitabine plus gp120 model. Type of data set: in vivo, rat. The note with it: for thermal hyperalgesia, difference from control: p ≤0.05.
Text: as §6, §7, §3
as §4, with “Each hind paw was tested once to obtain a hind paw withdrawal threshold. Antinociception, or analgesia, was defined quantally as an increase in response over baseline.” left out

Data set [9] can be described thus: Solubility of mepivacaine base in formulation solvents. Type of data set: physicochemical. Conditions: 2.5 g in 2.5 g of propylene glycol. An excerpt:
2.5 g Mepivacaine base was suspended in 2.5 g of propylene glycol.

For data set [10] the following is noted: cited from earlier work.
For another data set, the system named is rat sciatic nerve. Conditions: cited from earlier work.
A further data set deals with postherpetic neuralgia. Conditions: Sindrup and Jensen; cited from earlier work.
Where [11] appears, read: topical in DMSO, pad on hind paw 5 min.

Data on 6 compounds can be found in US11607407B2, “Dermal pharmaceutical compositions of 1-methyl-2′,6′-pipecoloxylidide and method of use” (priority 2010, dated 2023).

The structures appear in SMILES notation. Like-named read-outs stand apart in the source and are kept apart here.

In the case of `Cc1cccc(C)c1NC(=O)C1CCCCN1C.Cl` (racemic) [mepivacaine hydrochloride, 2-piperidinecarboxamide, N(2,6-dimethylphenyl)-1-methyl-, monohydrochloride], the “formulation pH at which the maximum flux was obtained” value in data set [1] (HPMC gels pH 4.5-7.5) was 7.5.
For `Cc1cccc(C)c1NC(=O)C1CCCCN1C` (stereo not drawn) [Mepivacaine, 1-methyl-2′,6′-pipecoloxylidide], the “mechanical allodynia, difference from control” value in [2] (2 mg/mL in DMSO), in [2] (4 mg/mL in DMSO), in data set [2] (8 mg/mL in DMSO), in [5] (2 mg/mL) and in data set [5] (4 mg/mL) was “significantly different from control” in each case. In addition, the “antinociceptive effects for mechanical allodynia” value in data set [2] (setting [11]) was “short lived and variable antinociceptive effects”; in data set [5] (setting [11]), “short lived and variable antinociceptive effects”. In addition, the “thermal hyperalgesia, difference from control” value in data set [3] (2 mg/mL), in data set [3] (4 mg/mL), in [3] (8 mg/mL), in [8] (2 mg/mL) and in [8] (4 mg/mL) was “significantly different from control” each time. Moreover, in [3] (setting [11]), the “antinociceptive effects for thermal hyperalgesia” value was “short lived and variable antinociceptive effects”. In addition, in [4], the “IC50 in the growth cone collapse assay, rank among lidocaine, bupivacaine, mepivacaine, ropivacaine” value is given as “highest”. The Total flux was 0.4251 mg/cm^2/hr in data set [1] (carvone 0.5% w/w, pH 4.5); 0.5847 mg/cm^2/hr in data set [1] (carvone 0.5% w/w, pH 5.5); 0.7245 mg/cm^2/hr in data set [1] (carvone 0.5% w/w, pH 6.8); 0.8035 mg/cm^2/hr in data set [1] (carvone 0.5% w/w, pH 7.5); 0.4095 mg/cm^2/hr in data set [1] (no carvone, pH 4.5); 0.6000 mg/cm^2/hr in data set [1] (no carvone, pH 5.5). Moreover, the Total flux in [1] (no carvone, pH 6.8) was found to be 0.7531 mg/cm^2/hr; in [1] (no carvone, pH 7.5), 0.7442 mg/cm^2/hr. For the same compound, in data set [6], the “administered dose excreted into the bile as metabolites” value was “over 50%”. Further, in data set [6], the “bound to plasma proteins” value is reported as “approximately 75%”. The “excreted unchanged in the urine” value in data set [6] is listed as “less than 10%”. Besides, the “irritation or tissue damage” value in data set [7] is “does not ordinarily produce irritation or tissue damage”. The methemoglobinemia result in data set [7] was “does not cause methemoglobinemia”. Further, the “tail-flick latency, difference from control” value in the data set with tail-flick model (4 mg/mL) and in the data set with tail-flick model (8 mg/mL) was “significantly different from control” throughout. Moreover, the “analgesia in tail-flick assay” value in the data set with tail-flick model (tail immersed 5 minutes in DMSO solution) is “short lived and variable analgesia”. The “antinociceptive effects, section Thermal Hyperalgesia (text says mechanical allodynia)” value in [8] (setting [11]) was “short lived and variable antinociceptive effects”. The “solubility in propylene glycol” value in [9] is on record as “not sufficiently soluble”. In addition, in [10], the “solubility in EtOH” value was 40 g/100 ml.
On to `CCCCN1CCCCC1C(=O)Nc1c(C)cccc1C` (stereo not drawn) [bupivacaine], for which the “neuronal damage in rat sciatic nerve” value with rat sciatic nerve (0.75% (23.1 mM)) is on record as “do not”.
As for `CCN(CC)CC(=O)Nc1c(C)cccc1C` [lidocaine], the “IC50 in the growth cone collapse assay, rank among lidocaine, bupivacaine, mepivacaine, ropivacaine” value in data set [4] was “lowest”. For the same compound, the “neuronal damage in rat sciatic nerve” value in the data set with rat sciatic nerve (80 mM (2.17%)) is listed as “induced neuronal damage”.
In the case of `COc1ccc2c3c1O[C@H]1C(=O)CC[C@@]4(O)[C@@H](C2)N(C)CC[C@]314` [oxycodone], in the data set on postherpetic neuralgia, the “NNT values in postherpetic neuralgia” value was 2.5.
For `COc1cc(CNC(=O)CCCC/C=C/C(C)C)ccc1O` [topical capsaicin, capsaicin], the “NNT values in postherpetic neuralgia” value in the data set with postherpetic neuralgia is listed as 5.3.
